{"source": "patent US20250304617A1", "about": "“COMPOUND, SALT OF COMPOUND, ANTIBODY MODIFICATION REAGENT, METHOD FOR PRODUCING MODIFIED ANTIBODY, AND MODIFIED ANTIBODY” (Kagoshima University, priority 2021, published 2025)", "assay": "Examination of stability in DMSO (HPLC purity)", "assay_type": "physicochemical", "details": "20 mg/mL in DMSO", "method": "The compound A, the compound B, or the comparative example was dissolved in DMSO at a content of 20 mg/mL, allowed to stand at room temperature or −20° C. for a predetermined time, and analyzed by HPLC.\nFor the compound A, the compound B, and the comparative example, the ratio of the area of the main peak to the sum of the areas of all peaks (HPLC purity) is shown in Table 1.", "data": [{"smiles": "[N-]=[N+]=NCCCCC1NONC(C(N)=O)CCCCC(NCCCC(=O)C(Cc2ccccc2)NC(=O)CCCC(=O)ON2C(=O)CCC2=O)C(=O)N1", "note": "(stereo not shown) [Comparative example, DSG-αZ34C, reference compound]", "values": [{"measurement": "HPLC purity (ratio of the area of the main peak to the sum of the areas of all peaks)", "setting": "room temperature, 0 Hours", "value": 85, "unit": "%"}, {"measurement": "HPLC purity (ratio of the area of the main peak to the sum of the areas of all peaks)", "setting": "room temperature, 22 Hours", "value": 83, "unit": "%"}, {"measurement": "HPLC purity (ratio of the area of the main peak to the sum of the areas of all peaks)", "setting": "−20° C., 0 Days", "value": 92, "unit": "%"}, {"measurement": "HPLC purity (ratio of the area of the main peak to the sum of the areas of all peaks)", "setting": "−20° C., 30 Days", "value": 85, "unit": "%"}]}]}
